We go through 32 molecules from patent US8580811B2 (Ligand Pharmaceuticals Incorporated, priority 2005, dated 2013).

In one assay the target is T1, human AR (Homo sapiens, UniProt P10275).
T1 construct: expressed in transfected cells; host or cells: COS-1 cells
T1 sequence (P10275 1-920): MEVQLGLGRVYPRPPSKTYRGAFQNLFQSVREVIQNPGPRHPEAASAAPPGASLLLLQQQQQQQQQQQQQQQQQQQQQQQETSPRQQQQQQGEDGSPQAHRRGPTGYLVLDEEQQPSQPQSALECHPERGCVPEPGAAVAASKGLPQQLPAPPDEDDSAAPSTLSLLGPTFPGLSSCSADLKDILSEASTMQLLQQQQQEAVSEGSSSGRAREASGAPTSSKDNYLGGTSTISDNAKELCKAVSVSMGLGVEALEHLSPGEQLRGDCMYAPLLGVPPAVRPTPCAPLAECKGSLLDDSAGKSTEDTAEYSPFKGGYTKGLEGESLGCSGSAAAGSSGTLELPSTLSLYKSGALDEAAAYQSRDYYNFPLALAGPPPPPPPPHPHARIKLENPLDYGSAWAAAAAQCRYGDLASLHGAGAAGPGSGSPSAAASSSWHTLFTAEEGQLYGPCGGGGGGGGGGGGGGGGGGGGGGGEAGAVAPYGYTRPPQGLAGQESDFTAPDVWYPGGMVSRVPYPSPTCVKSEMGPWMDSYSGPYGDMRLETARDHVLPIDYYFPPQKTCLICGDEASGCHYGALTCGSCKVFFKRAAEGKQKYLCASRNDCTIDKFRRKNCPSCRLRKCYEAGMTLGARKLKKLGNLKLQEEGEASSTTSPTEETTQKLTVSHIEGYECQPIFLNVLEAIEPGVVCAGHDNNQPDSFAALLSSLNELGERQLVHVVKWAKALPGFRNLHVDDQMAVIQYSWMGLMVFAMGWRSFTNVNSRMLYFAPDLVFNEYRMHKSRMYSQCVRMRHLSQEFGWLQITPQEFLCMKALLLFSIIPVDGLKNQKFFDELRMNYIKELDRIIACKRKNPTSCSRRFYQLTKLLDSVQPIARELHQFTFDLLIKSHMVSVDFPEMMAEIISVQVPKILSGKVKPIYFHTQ
The experiment in a line: IR Binding Assay: whole cell competitive binding of test compounds against 3H-DHT in COS-1 cells transfected with pRShAR.
Conditions: not given
The method in brief:
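COS-1 cells transfected with pRShAR plus β-Gal reporter, serum-starved 24 h, then exposed to 1 nM ³H-DHT with compounds at 10^−10 to 10^−6 M for 3 h at 37 °C. Bound ³H-DHT counted in lysates, normalized to β-Gal. IC50 from log-logit plot; Ki via Cheng-Prusoff using Kd from Scatchard saturation analysis.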
With `O=c1cc(Cl)c2c(ccc3[nH]c4c(c32)CCCC4)[nH]1` [Compound 113, 9-Chloro-1,2-tetramethylene-3,6-dihydro-pyrrolo[3,2-f]quinolin-7-one], the inhibition constant Ki – broadly, a dissociation constant, usually derived from enzyme kinetics or from competition with a known ligand – was greater than 10 nM.

For the molecule `Cc1c[nH]c2ccc3[nH]c(=O)cc(Cl)c3c12` [Compound 114, 9-Chloro-1-methyl-3,6-dihydro-pyrrolo[3,2-f]quinolin-7-one], the Ki was greater than 10 nM.

In turn, `Cc1c(-c2ccc(F)cc2)[nH]c2ccc3[nH]c(=O)cc(Cl)c3c12` [Compound 116, 9-Chloro-2-(4-fluorophenyl)-1-methyl-3,6-dihydro-pyrrolo[3,2-f]quinolin-7-one] had an inhibition constant (Ki) of less than 5 nM.

As for `Cc1c(-c2ccc(F)cc2F)[nH]c2ccc3[nH]c(=O)cc(Cl)c3c12` [Compound 117, 9-Chloro-2-(2,4-difluorophenyl)-1-methyl-3,6-dihydro-pyrrolo[3,2-f]quinolin-7-one], the inhibition constant Ki is less than 5 nM.

Regarding `Cc1c(-c2ccc(Cl)cc2)[nH]c2ccc3[nH]c(=O)cc(Cl)c3c12` [Compound 118, 9-Chloro-2-(4-chlorophenyl)-1-methyl-3,6-dihydro-pyrrolo[3,2-f]quinolin-7-one], the inhibition constant Ki is less than 5 nM.

For `Cc1c(-c2ccccc2F)[nH]c2ccc3[nH]c(=O)cc(Cl)c3c12` [Compound 119, 9-Chloro-2-(2-fluorophenyl)-1-methyl-3,6-dihydro-pyrrolo[3,2-f]quinolin-7-one], the Ki is less than 5 nM.

Molecule `Cc1[nH]c2ccc3[nH]c(=O)cc(Cl)c3c2c1CC(=O)O` [Compound 122, (9-Chloro-2-methyl-7-oxo-6,7-dihydro-3H-pyrrolo[3,2-f]quinolin-1-yl)-acetic acid] had an inhibition constant (Ki) of less than 5 nM.

With `CCc1c(-c2cccs2)[nH]c2ccc3[nH]c(=O)cc(Cl)c3c12` [Compound 123, 9-Chloro-1-ethyl-2-thien-2-yl-3,6-dihydro-pyrrolo[3,2-f]quinolin-7-one], the Ki is 5 to 10 nM.

`CCCc1c(C)[nH]c2ccc3[nH]c(=O)cc(Cl)c3c12` [Compound 124, 9-Chloro-2-methyl-1-propyl-3,6-dihydro-pyrrolo[3,2-f]quinolin-7-one] came in with a Ki greater than 10 nM.

The molecule `O=c1cc(Cl)c2c3c(ccc2[nH]1)N(CC(F)(F)F)[C@@H]1CCC[C@H]31` [Compound 162, (+)-9-Chloro-3-(2,2,2-trifluoroethyl)-1,2-trimethylene-1,2,3,6-tetrahydropyrrolo[3,2-f]quinolin-7-one] gave a Ki of less than 5 nM.

For `O=c1cc(Cl)c2c3c(ccc2[nH]1)N(CC(F)(F)F)[C@H]1CCC[C@@H]31` [Compound 163, (−)-9-Chloro-3-(2,2,2-trifluoroethyl)-1,2-trimethylene-1,2,3,6-tetrahydropyrrolo[3,2-f]-quinolin-7-one], the inhibition constant Ki was greater than 10 nM.

`Cc1c(C)n(CC(F)(F)F)c2ccc3[nH]c(=O)cc(Cl)c3c12` [Compound 184, 9-Chloro-1,2-dimethyl-3-(2,2,2-trifluoroethyl)-3,6-dihydro-pyrrolo[3,2-f]quinolin-7-one] registered a Ki of less than 5 nM.

Consider `CCc1c(C)n(CC(F)(F)F)c2ccc3[nH]c(=O)cc(Cl)c3c12` [Compound 185, 9-Chloro-1-ethyl-2-methyl-3-(2,2,2-trifluoroethyl)-3,6-dihydro-pyrrolo[3,2-f]quinolin-7-one], for which the Ki is less than 5 nM.

`Cc1cc2c3c(Cl)cc(=O)[nH]c3ccc2n1CC(F)(F)F` [Compound 186, 9-Chloro-2-methyl-3-(2,2,2-trifluoroethyl)-3,6-dihydro-pyrrolo[3,2-f]quinolin-7-one] came in with a Ki of 5 to 10 nM.

As for `Cc1c(-c2ccccc2)n(CC(F)(F)F)c2ccc3[nH]c(=O)cc(Cl)c3c12` [Compound 187, 9-Chloro-1-methyl-2-phenyl-3-(2,2,2-trifluoroethyl)-3,6-dihydro-pyrrolo[3,2-f]quinolin-7-one], the inhibition constant Ki was less than 5 nM.

In turn, `Cc1c(C=O)c2c3c(Cl)cc(=O)[nH]c3ccc2n1Cc1ccccc1` [Compound 188, 3-Benzyl-9-chloro-2-methyl-7-oxo-6,7-dihydro-3H-pyrrolo[3,2-f]quinoline-1-carbaldehyde] showed an inhibition constant Ki of less than 5 nM.

`Cc1c(C)n(CCc2cccs2)c2ccc3[nH]c(=O)cc(Cl)c3c12` [Compound 189, 9-Chloro-1,2-dimethyl-3-(2-thien-2-yl-ethyl)-3,6-dihydro-pyrrolo[3,2-f]quinolin-7-one] gave an inhibition constant Ki greater than 10 nM.

With `Cc1c(C)n(CCO)c2ccc3[nH]c(=O)cc(Cl)c3c12` [Compound 190, 9-Chloro-3-(2-hydroxy-ethyl)-1,2-dimethyl-3,6-dihydro-pyrrolo[3,2-f]quinolin-7-one], the inhibitory constant (Ki) was greater than 10 nM.

The molecule `Cc1c(C)n(CC(F)F)c2ccc3[nH]c(=O)cc(Cl)c3c12` [Compound 191, 9-Chloro-3-(2,2-difluoroethyl)-1,2-dimethyl-3,6-dihydro-pyrrolo[3,2-f]quinolin-7-one] had a Ki of less than 5 nM.

`Cc1c(C=O)c2c3c(Cl)cc(=O)[nH]c3ccc2n1CCO` [Compound 192, 9-Chloro-3-(2-hydroxy-ethyl)-2-methyl-7-oxo-6,7-dihydro-3H-pyrrolo[3,2-f]quinoline-1-carbaldehyde]: the Ki is greater than 10 nM.

As for `CCn1cc(C)c2c3c(Cl)cc(=O)[nH]c3ccc21` [Compound 193, 9-Chloro-3-ethyl-1-methyl-3,6-dihydro-pyrrolo[3,2-f]quinolin-7-one], the inhibition constant Ki lay in the range of 5 to 10 nM.

As to `Cc1c(-c2ccc(F)cc2)n(CC(F)(F)F)c2ccc3[nH]c(=O)cc(Cl)c3c12` [Compound 194, 9-Chloro-2-(4-fluorophenyl)-1-methyl-3-(2,2,2-trifluoroethyl)-3,6-dihydro-pyrrolo[3,2-f]quinolin-7-one], the Ki was less than 5 nM.

With `Cc1c(C)n(CC(F)(F)F)c2cc(F)c3[nH]c(=O)cc(Cl)c3c12` [Compound 195, 9-Chloro-1,2-dimethyl-5-fluoro-3-(2,2,2-trifluoroethyl)-3,6-dihydro-pyrrolo[3,2-f]quinolin-7-one], the Ki is less than 5 nM.

In the case of `CCn1c(C)c(C)c2c3c(Cl)cc(=O)[nH]c3ccc21` [Compound 196, 9-Chloro-1,2-dimethyl-3-ethyl-3,6-dihydro-pyrrolo[3,2-f]quinolin-7-one], the Ki is less than 5 nM.

For the molecule `COc1ccc(-c2c(C)c3c4c(Cl)cc(=O)[nH]c4ccc3n2CC(F)(F)F)cc1` [Compound 197, 9-Chloro-2-(4-methoxyphenyl)-1-methyl-3-(2,2,2-trifluoroethyl)-3,6-dihydro-pyrrolo[3,2-f]-quinolin-7-one], the inhibition constant Ki was less than 5 nM.

Molecule `Cc1c(-c2cccc(Br)c2)n(CC(F)(F)F)c2ccc3[nH]c(=O)cc(Cl)c3c12` [Compound 198, 2-(3-Bromophenyl)-9-Chloro-1-methyl-3-(2,2,2-trifluoroethyl)-3,6-dihydro-pyrrolo[3,2-f]-quinolin-7-one] had a Ki greater than 10 nM.

`Cc1c(-c2ccccc2F)n(CC(F)(F)F)c2ccc3[nH]c(=O)cc(Cl)c3c12` [Compound 199, 9-Chloro-2-(2-fluorophenyl)-1-methyl-3-(2,2,2-trifluoroethyl)-3,6-dihydro-pyrrolo[3,2-f]quinolin-7-one] yielded a Ki of less than 5 nM.

On to `Cc1c(-c2ccc(F)cc2F)n(CC(F)(F)F)c2ccc3[nH]c(=O)cc(Cl)c3c12` [Compound 200, 9-Chloro-2-(2,4-difluorophenyl)-1-methyl-3-(2,2,2-trifluoroethyl)-3,6-dihydro-pyrrolo[3,2-f]-quinolin-7-one], for which the Ki is less than 5 nM.

The same assay, now with this note: competition with 1 nM 3H-DHT, transfected COS-1 cells, 3 h at 37° C., Cheng-Prusoff from IC50; read-out: Ki.
As for `COc1ccc(-c2[nH]c3ccc4[nH]c(=O)cc(Cl)c4c3c2C)cc1` [Compound 115, 9-Chloro-2-(4-methoxy-phenyl)-1-methyl-3,6-dihydro-pyrrolo[3,2-f]quinolin-7-one], the inhibition constant Ki is greater than 10 nM.

In the case of `Cc1c(-c2cccs2)[nH]c2ccc3[nH]c(=O)cc(Cl)c3c12` [Compound 120, 9-Chloro-1-methyl-2-thien-2-yl-3,6-dihydro-pyrrolo[3,2-f]quinolin-7-one], the Ki is greater than 10 nM.

Turning to `CC(=O)c1[nH]c2ccc3[nH]c(=O)cc(Cl)c3c2c1C` [Compound 121, 2-Acetyl-9-chloro-1-methyl-3,6-dihydro-pyrrolo[3,2-f]quinolin-7-one], the inhibition constant (Ki) was greater than 10 nM.

As for `CCc1c(-c2ccccc2)[nH]c2ccc3[nH]c(=O)cc(Cl)c3c12` [Compound 125, 9-Chloro-1-ethyl-2-phenyl-3,6-dihydro-pyrrolo[3,2-f]quinolin-7-one], the Ki is greater than 10 nM.
